The text below walks through data of article PMC5610936 (Biochemical pharmacology, 2017).

Like-named read-outs stand apart in the source and are kept apart here.

Series [1] has as its system HT-29 cells. The series is described as follows: MTT cell growth assay. It counts as cell-based, human. To be noted: for 50% growth inhibition of HT-29 cells reached within 72 h: 100 nM, time course up to 72 h; for IC50: Homo sapiens, HT-29, 72 h, read-out: IC50 inhibition of HT-29 cell proliferation.
Series [2] relates to HT-29 cells. Kind of series: Colony formation. It counts as cell-based, human.
Series [3] relates to HT-29 cells. Kind of series: Intracellular ROS by flow cytometry with CM-H2-DCF-DA. It counts as cell-based, human. To be noted: 24 h; for change in DCF fluorescence (intracellular ROS) vs vehicle: 50 nM; for intracellular ROS (DCF) after high concentration: 500 nM. For orientation: In flow cytometry, cells or beads pass a laser one at a time.
The subject of series [4] is HT-29 cells. The series is described as follows: Seahorse oxygen consumption rate / extracellular acidification rate. It counts as cell-based, human.
The target in series [5] is T1, NOX2 (Homo sapiens, UniProt P04839). The series is described as follows: PMA-induced superoxide anion luminescence assay, PMNs. It counts as cell-based.
Series [6] has as its target T1, NOX2. The series is described as follows: PMA-induced superoxide anion luminescence assay, differentiated HL-60 cells. It counts as cell-based.
For series [7], the system named is HT-29 cells.
Series [8] has as its system HT-29 cells. Kind of series: HT-29 cell growth by cell counting after SOD/catalase. It counts as cell-based, human. Particulars: 96 h, 0-2000 U/ml, significant at ≥ 500 U/ml.
The mark [9] stands for this setting: Homo sapiens, HT-29, 240 h, read-out: 10-day treatment IC50, colony formation.
The mark [10] stands for this setting: Homo sapiens, HT-29, read-out: 2-h treatment IC50, colony formation.
The mark [11] stands for this setting: Homo sapiens, HT-29, 1 h, read-out: 60-min treatment IC50, cellular respiration (OCR).
The mark [12] stands for this setting: Homo sapiens, HT-29, 24 h, read-out: 24-h treatment IC50, cellular respiration (OCR).
Where [13] appears, read: ratio of NOX2 IC50 values, PMN vs HL-60.
Where [14] appears, read: Homo sapiens, HT-29, 1 h, read-out: 60-min treatment IC50, cellular respiration (OCR), HT-29, 60 min.
The mark [15] stands for this setting: Homo sapiens, HT-29, 24 h, read-out: 24-h treatment IC50, cellular respiration (OCR), HT-29, 24 h.
[16] abbreviates: read-out: 24-h treatment IC50, cellular respiration (OCR), HT-29, 24 h.
The mark [17] stands for this setting: read-out: 10-day treatment IC50, colony formation, HT-29, 10-day exposure.
Setting [18] is: read-out: 30-min treatment IC50, cellular respiration (OCR), HT-29, 30 min.
Setting [19] is: read-out: 60-min treatment IC50, cellular respiration (OCR), HT-29, 60 min.

As to `Brc1ccc2c(c1)[I+]c1cc(Br)ccc1-2.[Br-]` [compound 104, Dibenziodolium, 3,7-dibromo-, bromide], in the series with HT-29 cells [1], the “50% growth inhibition of HT-29 cells reached within 72 h” value is given as “achieved 50% growth inhibition”. In addition, the IC50 is 150 to 250 nM with HT-29 cells [1]; 9 ± 2 nM with HT-29 cells [2] (setting [9]); 1220 nM in the series on HT-29 cells [2] (setting [10]); 1470 nM in the series with HT-29 cells [4] (setting [11]); 74 ± 54 nM with HT-29 cells [4] (setting [12]); 481 ± 44 nM against NOX2 [5]. For the same molecule, the “change in DCF fluorescence (intracellular ROS) vs vehicle” value (“change in DCF fluorescence” below) in the series with HT-29 cells [3] is on record as “left-shift (decrease) in DCF fluorescence”. The “intracellular ROS (DCF) after high concentration” value (“intracellular ROS (DCF)” below) in the series with HT-29 cells [3] is “did not demonstrate this effect”. Moreover, at NOX2 [6] (setting [13]), the “fold more potent in HL-60 leukemia line compared to PMNs” value (“fold more potent in HL-60 leukemia line” for short) is 2- to 5 fold.
On to `O=[N+]([O-])c1ccc2c(c1)[I+]c1cc([N+](=O)[O-])ccc1-2.[Br-]` [compound 392, Dibenziodolium, 3,7-dinitro-, bromide], for which the IC50 with HT-29 cells [2] (setting [9]) was 27 ± 28 nM; in the series with HT-29 cells [4] (setting [14]), 2180 nM; in the series with HT-29 cells [4] (setting [15]), approximately 800 nM; in the series with HT-29 cells [4] (setting [16]) it was 801 ± 194 nM; against NOX2 [5], 850 ± 197 nM. Further, the “change in DCF fluorescence” value in the series on HT-29 cells [3] is “left-shift (decrease) in DCF fluorescence”. For the same molecule, the “intracellular ROS (DCF)” value with HT-29 cells [3] is “did not demonstrate this effect”. Also, the “effect on cellular metabolic activity (OCR/ECAR)” value in the series on HT-29 cells [4] (24 h, concentrations ≤ 316 nM) is “no adverse effects”. Besides, the “fold more potent in HL-60 leukemia line” value at NOX2 [6] is 2- to 5 fold.
Turning to `COC(=O)c1ccc2c(c1)[I+]c1ccccc1-2.Cc1ccc(S(=O)(=O)[O-])cc1` [compound 140, Dibenz[b,d]iodolium, 3-(methoxycarbonyl)-, salt with 4-methyl-benzenesulfonic acid (1:1)], the IC50 with HT-29 cells [2] (setting [17]) amounted to 40 ± 32 nM; in the series with HT-29 cells [4] (setting [16]), 76 ± 21 nM; with HT-29 cells [4] (setting [18]), 678 ± 201 nM; in the series with HT-29 cells [4] (setting [19]), 475 ± 116 nM. Further, the “intracellular ROS (DCF)” value in the series with HT-29 cells [3] is given as “did not demonstrate this effect”. Moreover, on NOX2 [6] (setting [13]), the “fold more potent in HL-60 leukemia line” value is 2- to 5 fold.
In the case of `c1ccc2c(c1)[I+]c1ccccc1-2` [DPI, Diphenylene iodonium, reference compound], the IC50 in the series with HT-29 cells [1] is approximately 450 nM; in the series with HT-29 cells [2] (setting [9]) it was 39 ± 23 nM; in the series on HT-29 cells [2] (setting [10]), 9260 nM; in the series with HT-29 cells [4] (setting [11]), 4570 nM; in the series on HT-29 cells [4] (setting [12]), 200 ± 245 nM. Also, the “change in DCF fluorescence” value in the series with HT-29 cells [3] is “left-shift (decrease) in DCF fluorescence”. For the same molecule, in the series on HT-29 cells [3], the “intracellular ROS (DCF)” value is listed as “increases in intracellular ROS”. The “decrease in oxygen consumption” value with HT-29 cells [4] (2 μM, immediate effect) is given as 80%. The “concentration at which ECAR increased” value in the series with HT-29 cells [4] (HT-29, 24-h treatment) amounted to 316 nM. The “concentration at which OCR began to decrease” value in the series with HT-29 cells [4] (HT-29, 24-h treatment) turned out to be 31.6 nM. Moreover, the “effect on mitochondrial ROS production (MitoSox)” value in the series on HT-29 cells [7] (1 μM, 2 h) is “right shift in MitoSox fluorescence”; with HT-29 cells [7] (concentrations ≤ 200 nM, 24 h), “no effect”.
As to `O=[N+]([O-])c1cccc2c1-c1c(cccc1[N+](=O)[O-])[I+]2.[Br-]` [compound 521, Dibenziodolium, 1,9-dinitro-, salt with bromide (1:1)], the figures for the IC50 in the series on HT-29 cells [2] (setting [17]), in the series with HT-29 cells [4] (setting [18]) and in the series on HT-29 cells [4] (setting [19]) were 488 ± 101 nM, 1670 nM and 1000 nM, respectively. Moreover, the “24-h treatment IC50, cellular respiration (OCR)” value in the series on HT-29 cells [4] (HT-29, 24 h) is on record as “No effect”.
As for `O=[N+]([O-])c1ccc2c(c1)[I+]c1ccccc1-2.[Cl-]` [compound 428, Dibenz[b,d]iodolium, 3-nitro-, chloride], the “50% growth inhibition of HT-29 cells reached within 72 h” value in the series on HT-29 cells [1] is on record as “achieved 50% growth inhibition”. The IC50 is 11 ± 6 nM with HT-29 cells [2] (setting [9]); 77 ± 12 nM in the series with HT-29 cells [2] (setting [10]); 29 ± 23 nM with HT-29 cells [2] (Homo sapiens, HT-29, read-out: 6-h treatment IC50, colony formation); 211 ± 33 nM in the series with HT-29 cells [4] (setting [14]); 45 ± 23 nM with HT-29 cells [4] (setting [15]). Further, the “change in DCF fluorescence” value in the series with HT-29 cells [3] is reported as “left-shift (decrease) in DCF fluorescence”. For the same molecule, the “intracellular ROS (DCF)” value in the series on HT-29 cells [3] was “increases in intracellular ROS”.

B1: catalase: ROS detoxifying enzyme, human catalase (Sigma Aldrich) (protein, UniProt P04040 2-527, looked up)
Catalase: ADSRDPASDQMQHWKEQRAAQKADVLTTGAGNPVGDKLNVITVGPRGPLLVQDVVFTDEMAHFDRERIPERVVHAKGAGAFGYFEVTHDITKYSKAKVFEHIGKKTPIAVRFSTVAGESGSADTVRDPRGFAVKFYTEDGNWDLVGNNTPIFFIRDPILFPSFIHSQKRNPQTHLKDPDMVWDFWSLRPESLHQVSFLFSDRGIPDGHRHMNGYGSHTFKLVNANGEAVYCKFHYKTDQGIKNLSVEDAARLSQEDPDYGIRDLFNAIATGKYPSWTFYIQVMTFNQAETFPFNPFDLTKVWPHKDYPLIPVGKLVLNRNPVNYFAEVEQIAFDPSNMPPGIEASPDKMLQGRLFAYPDTHRHRLGPNYLHIPVNCPYRARVANYQRDGPMCMQDNQGGAPNYYPNSFGAPEQQPSALEHSIQYSGEVRRFNTANDDNVTQVRAFYVNVLNEEQRKRLCENIAGHLKDAQIFIQKKAVKNFTEVHPDYGSHIQALLDKYNAEKPKNAIHTFVQSGSHLAAREKANL
As to B1, the “effect on proliferation of HT-29 cells vs control-treated cells” value in the series with HT-29 cells [8] is on record as “reduced the proliferation”.
